Data taken from article PMC6979384, “Characterization of the plant homeodomain (PHD) reader family for their histone tail interactions” (Epigenetics & Chromatin, 2020).

Columns and labels:
Experiment in all cases: Histone peptide microarray
Format in all cases: binding, human
Conditions in all cases: total n = 4
[1] = tested on: PHF23
In short: (§1)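 GST-tagged PHD finger readers were expressed, purified and applied at 0.5 μM to a microarray of 293 synthetic histone peptides carrying single or combinatorial PTMs, using an optimized protocol. Binding signals are averages with standard deviation from 4 replicates.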

[2] = tested on: PHF21A
In short: as §1

[3] = tested on: KDM5B (1)
In short: as §1

[4] = tested on: TAF3
In short: as §1

[5] = tested on: KDM7A
In short: as §1

[6] = tested on: KDM4C (TTP)
In short: as §1

[7] = tested on: ING2
In short: as §1

[8] = tested on: BAZ2B
In short: as §1

[9] = tested on: TRIM66 (PB)
In short: as §1

[10] = tested on: DIDO1
In short: as §1

[11] = tested on: ING5
In short: as §1

[12] = tested on: SP140L
In short: as §1

[13] = tested on: BPTF (PB)
In short: as §1

[14] = tested on: ING4
In short: as §1

[15] = tested on: ING3
In short: as §1

[16] = tested on: KDM5A (1)
In short: as §1

[17] = tested on: MORC3 (CW)
In short: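 Each reader, produced as a GST fusion and purified, was tested at 0.5 μM on synthetic histone peptides (293 in total) carrying single or combinatorial marks. Intensities averaged over four replicates.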

[18] = tested on: PHF8
In short: as §1

[19] = tested on: AIRE (PP)
In short: as §1

[20] = tested on: KDM5B (3)
In short: as §1

[21] = tested on: PHRF1 (RP)
In short: as §1

[22] = tested on: CHD5 (PPCC)
In short: as §1

[23] = tested on: DPF2 (PPC2W2)
In short: as §1

[24] = tested on: ING1
In short: as §1

[25] = tested on: MLL5
In short: as §1

[26] = tested on: CHD4 (PPCC)
In short: as §1

[27] = tested on: PHF2
In short: as §1

[28] = tested on: KDM5A (3)
In short: as §1

[29] = tested on: PHF13
In short: as §1

[30] = tested on: CHD5 (PCC)
In short: as §1

[31] = tested on: RAG2
In short: as §1

[32] = sheet "Array Heatmap", GST-tagged reader, histone peptide array

H3K4me3 + T6p: H3 1-20
Array Heatmap signal, PHF23 [1, 32]: 0.5195 | Array Heatmap signal, PHF21A [2, 32]: 0.4225 | Array Heatmap signal, KDM5B (1) [3, 32]: 0.6162 | Array Heatmap signal, TAF3 [4, 32]: 0.309 | Array Heatmap signal, KDM7A [5, 32]: 0.3405 | Array Heatmap signal, KDM4C (TTP) [6, 32]: 0.4688 | Array Heatmap signal, ING2 [7, 32]: 0.6187 | Array Heatmap signal, BAZ2B [8, 32]: 0.4415 | Array Heatmap signal, TRIM66 (PB) [9, 32]: 0.549 | Array Heatmap signal, DIDO1 [10, 32]: 0.7585 | Array Heatmap signal, ING5 [11, 32]: 0.3481 | Array Heatmap signal, SP140L [12, 32]: 0.3667 | Array Heatmap signal, BPTF (PB) [13, 32]: 0.3519 | Array Heatmap signal, ING4 [14, 32]: 0.4567 | Array Heatmap signal, ING3 [15, 32]: 0.4695 | Array Heatmap signal, KDM5A (1) [16, 32]: 0.452 | Array Heatmap signal, MORC3 (CW) [17, 32]: 0.3571 | Array Heatmap signal, PHF8 [18, 32]: 0.3678 | Array Heatmap signal, AIRE (PP) [19, 32]: 0.4133 | Array Heatmap signal, KDM5B (3) [20, 32]: 0.4934 | Array Heatmap signal, PHRF1 (RP) [21, 32]: 0.5056 | Array Heatmap signal, CHD5 (PPCC) [22, 32]: 0.54 | Array Heatmap signal, DPF2 (PPC2W2) [23, 32]: 0.6833 | Array Heatmap signal, ING1 [24, 32]: 0.5971 | Array Heatmap signal, MLL5 [25, 32]: 0.5684 | Array Heatmap signal, CHD4 (PPCC) [26, 32]: 0.5535 | Array Heatmap signal, PHF2 [27, 32]: 0.6668 | Array Heatmap signal, KDM5A (3) [28, 32]: 0.4911 | Array Heatmap signal, PHF13 [29, 32]: 0.5795 | Array Heatmap signal, CHD5 (PCC) [30, 32]: 0.7037 | Array Heatmap signal, RAG2 [31, 32]: 0.2443

H3K4me3R8me2a: H3 1-20
Array Heatmap value (peptide array signal) ([1]; PHF23, sheet "Array Heatmap", each array performed twice): 0.5109 | Array Heatmap value (peptide array signal) ([2]; PHF21A, sheet "Array Heatmap", each array performed twice): 0.4017 | Array Heatmap value (peptide array signal) ([3]; KDM5B (1), sheet "Array Heatmap", each array performed twice): 0.5478 | Array Heatmap value (peptide array signal) ([4]; TAF3, sheet "Array Heatmap", each array performed twice): 0.2483 | Array Heatmap value (peptide array signal) ([5]; KDM7A, sheet "Array Heatmap", each array performed twice): 0.3319 | Array Heatmap value (peptide array signal) ([6]; KDM4C (TTP), sheet "Array Heatmap", each array performed twice): 0.39 | Array Heatmap value (peptide array signal) ([7]; ING2, sheet "Array Heatmap", each array performed twice): 0.6387 | Array Heatmap value (peptide array signal) ([8]; BAZ2B, sheet "Array Heatmap", each array performed twice): 0.3334 | Array Heatmap value (peptide array signal) ([9]; TRIM66 (PB), sheet "Array Heatmap", each array performed twice): 0.5377 | Array Heatmap value (peptide array signal) ([10]; DIDO1, sheet "Array Heatmap", each array performed twice): 0.6362 | Array Heatmap value (peptide array signal) ([11]; ING5, sheet "Array Heatmap", each array performed twice): 0.2674 | Array Heatmap value (peptide array signal) ([12]; SP140L, sheet "Array Heatmap", each array performed twice): 0.3243 | Array Heatmap value (peptide array signal) ([13]; BPTF (PB), sheet "Array Heatmap", each array performed twice): 0.2864 | Array Heatmap value (peptide array signal) ([14]; ING4, sheet "Array Heatmap", each array performed twice): 0.3653 | Array Heatmap value (peptide array signal) ([15]; ING3, sheet "Array Heatmap", each array performed twice): 0.4064 | Array Heatmap value (peptide array signal) ([16]; KDM5A (1), sheet "Array Heatmap", each array performed twice): 0.3616 | Array Heatmap value (peptide array signal) ([17]; MORC3 (CW), sheet "Array Heatmap", each array performed twice): 0.4123 | Array Heatmap value (peptide array signal) ([18]; PHF8, sheet "Array Heatmap", each array performed twice): 0.377 | Array Heatmap value (peptide array signal) ([19]; AIRE (PP), sheet "Array Heatmap", each array performed twice): 0.3453 | Array Heatmap value (peptide array signal) ([20]; KDM5B (3), sheet "Array Heatmap", each array performed twice): 0.4037 | Array Heatmap value (peptide array signal) ([21]; PHRF1 (RP), sheet "Array Heatmap", each array performed twice): 0.4161 | Array Heatmap value (peptide array signal) ([22]; CHD5 (PPCC), sheet "Array Heatmap", each array performed twice): 0.4208 | Array Heatmap value (peptide array signal) ([23]; DPF2 (PPC2W2), sheet "Array Heatmap", each array performed twice): 0.6137 | Array Heatmap value (peptide array signal) ([24]; ING1, sheet "Array Heatmap", each array performed twice): 0.5333 | Array Heatmap value (peptide array signal) ([25]; MLL5, sheet "Array Heatmap", each array performed twice): 0.5116 | Array Heatmap value (peptide array signal) ([26]; CHD4 (PPCC), sheet "Array Heatmap", each array performed twice): 0.4923 | Array Heatmap value (peptide array signal) ([27]; PHF2, sheet "Array Heatmap", each array performed twice): 0.5013 | Array Heatmap value (peptide array signal) ([28]; KDM5A (3), sheet "Array Heatmap", each array performed twice): 0.5067 | Array Heatmap value (peptide array signal) ([29]; PHF13, sheet "Array Heatmap", each array performed twice): 0.5067 | Array Heatmap value (peptide array signal) ([30]; CHD5 (PCC), sheet "Array Heatmap", each array performed twice): 0.6343 | Array Heatmap value (peptide array signal) ([31]; RAG2, sheet "Array Heatmap", each array performed twice): 0.2561

H3K9ac + K14ac + K18ac: H3 1-20
Array Heatmap signal (histone peptide microarray) ([1]; GST-tagged PHF23, sheet Array Heatmap, each array performed twice): 0.5614 | Array Heatmap signal (histone peptide microarray) ([2]; GST-tagged PHF21A, sheet Array Heatmap, each array performed twice): 0.4657 | Array Heatmap signal (histone peptide microarray) ([3]; GST-tagged KDM5B (1), sheet Array Heatmap, each array performed twice): 0.5879 | Array Heatmap signal (histone peptide microarray) ([4]; GST-tagged TAF3, sheet Array Heatmap, each array performed twice): 0.2816 | Array Heatmap signal (histone peptide microarray) ([5]; GST-tagged KDM7A, sheet Array Heatmap, each array performed twice): 0.3112 | Array Heatmap signal (histone peptide microarray) ([6]; GST-tagged KDM4C (TTP = Tandem Tudor domain + PHD), sheet Array Heatmap, each array performed twice): 0.4368 | Array Heatmap signal (histone peptide microarray) ([7]; GST-tagged ING2, sheet Array Heatmap, each array performed twice): 0.62 | Array Heatmap signal (histone peptide microarray) ([8]; GST-tagged BAZ2B, sheet Array Heatmap, each array performed twice): 0.6427 | Array Heatmap signal (histone peptide microarray) ([9]; GST-tagged TRIM66 (PB = PHD + Bromodomain), sheet Array Heatmap, each array performed twice): 0.7029 | Array Heatmap signal (histone peptide microarray) ([10]; GST-tagged DIDO1, sheet Array Heatmap, each array performed twice): 0.777 | Array Heatmap signal (histone peptide microarray) ([11]; GST-tagged ING5, sheet Array Heatmap, each array performed twice): 0.3256 | Array Heatmap signal (histone peptide microarray) ([12]; GST-tagged SP140L, sheet Array Heatmap, each array performed twice): 0.346 | Array Heatmap signal (histone peptide microarray) ([13]; GST-tagged BPTF (PB = PHD + Bromodomain), sheet Array Heatmap, each array performed twice): 0.3483 | Array Heatmap signal (histone peptide microarray) ([14]; GST-tagged ING4, sheet Array Heatmap, each array performed twice): 0.4438 | Array Heatmap signal (histone peptide microarray) ([15]; GST-tagged ING3, sheet Array Heatmap, each array performed twice): 0.4687 | Array Heatmap signal (histone peptide microarray) ([16]; GST-tagged KDM5A (1), sheet Array Heatmap, each array performed twice): 0.4668 | Array Heatmap signal (histone peptide microarray) ([17]; GST-tagged MORC3 (CW = CW-type Zn-finger), sheet Array Heatmap, each array performed twice): 0.5442 | Array Heatmap signal (histone peptide microarray) ([18]; GST-tagged PHF8, sheet Array Heatmap, each array performed twice): 0.3679 | Array Heatmap signal (histone peptide microarray) ([19]; GST-tagged AIRE (PP), sheet Array Heatmap, each array performed twice): 0.4138 | Array Heatmap signal (histone peptide microarray) ([20]; GST-tagged KDM5B (3), sheet Array Heatmap, each array performed twice): 0.4869 | Array Heatmap signal (histone peptide microarray) ([21]; GST-tagged PHRF1 (RP), sheet Array Heatmap, each array performed twice): 0.8654 | Array Heatmap signal (histone peptide microarray) ([22]; GST-tagged CHD5 (PPCC = Dual PHD + Dual Chromodomain), sheet Array Heatmap, each array performed twice): 0.5238 | Array Heatmap signal (histone peptide microarray) ([23]; GST-tagged DPF2 (PPC2W2 = Dual PHD + C2W2-type Zn-finger), sheet Array Heatmap, each array performed twice): 0.8971 | Array Heatmap signal (histone peptide microarray) ([24]; GST-tagged ING1, sheet Array Heatmap, each array performed twice): 0.5813 | Array Heatmap signal (histone peptide microarray) ([25]; GST-tagged MLL5, sheet Array Heatmap, each array performed twice): 0.5367 | Array Heatmap signal (histone peptide microarray) ([26]; GST-tagged CHD4 (PPCC = Dual PHD + Dual Chromodomain), sheet Array Heatmap, each array performed twice): 0.6424 | Array Heatmap signal (histone peptide microarray) ([27]; GST-tagged PHF2, sheet Array Heatmap, each array performed twice): 0.5699 | Array Heatmap signal (histone peptide microarray) ([28]; GST-tagged KDM5A (3), sheet Array Heatmap, each array performed twice): 0.5902 | Array Heatmap signal (histone peptide microarray) ([29]; GST-tagged PHF13, sheet Array Heatmap, each array performed twice): 0.5825 | Array Heatmap signal (histone peptide microarray) ([30]; GST-tagged CHD5 (PCC = PHD + Dual Chromodomain), sheet Array Heatmap, each array performed twice): 0.8362 | Array Heatmap signal (histone peptide microarray) ([31]; GST-tagged RAG2, sheet Array Heatmap, each array performed twice): 0.2782
